According to patent EP0495432A1, “Hexa-cyclic compound” (DAIICHI PHARMACEUTICAL CO., LTD., priority 1991, dated 1992):

Tested on: P388 murine leukemia cells
Assay: Cytotoxicity against P388 murine leukemia cells (MTT assay)
Format: cell-based
Conditions: sample added after 24 hours, cultivated 3 days at 37°C, 5% CO₂, absorption at 540 nm; for IC₅₀: P388 cells 2.5x10³ per well, hydrochloride
Protocol: P388 murine leukemia cells were spread over a 96-well microplate, 2.5x10³ cells per well. A sample to be tested was added after 24 hours. Cells were cultivated under the conditions of 5% CO₂ at 37°C for 3 days. 3-(4,5-Dimethylthiazol-2-yl)-2,5-diphenyl-2H-tetrazolium bromide (MTT) was added 4 hours after the addition of the sample. Upon the addition of 200 µl/ml of isopropyl alcohol containing 0.04 N HCl the absorption at 540 nm was measured to determine IC₅₀.

Structure (SMILES)	IC₅₀ [ng/mL]	IC50 (Mus musculus, P388, P388 cells 2.5x10³ per well, read-out: IC₅₀) [µg/mL]
CC[C@@]1(O)C(=O)OCc2c1cc1n(c2=O)Cc2c-1nc1cccc3c1c2C(N)CC3.Cl (single isomer, unassigned) [Example 2 (Isomer B)]	12.40	
CC[C@@]1(O)C(=O)OCc2c1cc1n(c2=O)Cc2c-1nc1ccc(OC)c3c1c2C(N)CC3.Cl (single isomer, unassigned) [Example 4 (Isomer B)]	27.80	
CC[C@@]1(O)C(=O)OCc2c1cc1n(c2=O)Cc2c-1nc1ccc(OC)c3c1c2CCC3N.Cl (single isomer, unassigned) [Example 7 (Isomer A)]		0.0114
CC[C@@]1(O)C(=O)OCc2c1cc1n(c2=O)Cc2c-1nc1ccc(OC)c3c1c2C(N)CC3.Cl (single isomer, unassigned) [Example 4 (Isomer A)]	9.21	
CC[C@@]1(O)C(=O)OCc2c1cc1n(c2=O)Cc2c-1nc1ccc(OC)c3c1c2CCC3N.Cl (single isomer, unassigned) [Example 7 (Isomer B)]	11.90	
CC[C@@]1(O)C(=O)OCc2c1cc1n(c2=O)Cc2c-1nc1cccc3c1c2C(N)CC3.Cl (single isomer, unassigned) [Example 2 (Isomer A)]	3.38	
